Patent US5817640A (Gensia Pharmaceuticals, priority 1995, dated 1998)

Experiments:
[1] = system: patients undergoing coronary artery bypass graft (CABG) surgery; assay: Transmural and non-transmural myocardial infarction, CK-MB and CK release, clinical outcomes (Phase 2); type: in vivo, human; conditions: for Number of patients developing transmural myocardial infarction (new Q-wave and CK-MB ≥ 50 I.U.): placebo 5 of 37; for Number of patients with non-transmural myocardial infarction (CK-MB ≥ 50 I.U.): placebo 17
Experimental: Creatinine phosphokinase MB band (CK-MB) was obtained every 8 hours for 48 hours and when indicated. Radio-nuclide ventriculography for ejection fraction and wall motion score was done about 14 days post-operation and as close to hospital discharge as possible. Other tests and measurements (e.g., chest x-ray, pulmonary artery wedge pressure (PCWP) were performed when clinically indicated for diagnosis or evaluation of myocardial infarction, or congestive heart failure. Timing and dose of all cardiovascular medications within 48 hours after surgery were recorded. The total dose of all analgesics during the 24-hour post-operative period was recorded. Fluid intake and output (e.g., blood replacement and urine output) were recorded for 48 hours. The type and duration of inotropic support and antiarrhythmic intervention required were recorded through 24 hours after surgery. Two-channel Holter recordings were obtained during 3 periods, the eight hours prior to intubation, from intubation through the end of surgery, and for an additional 24-48 hours after surgery. […] For the diagnosis of myocardial infarction, ECG tracings and CK-MB values were assessed centrally by observers blinded to treatment. The difficulty of weaning the patient from bypass, if any, was compared between placebo and treatment groups by noting need for one or more of the following: pacemaker, return to bypass, balloon pump or use of vasopressors. 4. Clinical Outcome. Outcomes of cardiac death, MI, CHF and life-threatening dysrhythmia were compared. Specific endpoints for analysis were combined into a dichotomous endpoint, i.e., at least one of the four events listed above occurs versus none occurs. Fisher's exact test for small samples was used to compare the rates of clinical outcome between the three treatment groups. […] Blood Chemistry--CPK, CK-MB, uric acid, glucose.

[2] = Discoloration of liquid formulation during storage; type: physicochemical
[3] = 0.05 mg/kg/min, n=41, ICU + 8 HR
[4] = 0.05 mg/kg/min, n=41, ICU + 16 HR
[5] = 0.05 mg/kg/min, n=41, ICU + 32 HR
[6] = 0.05 mg/kg/min, n=41, ICU + 40 HR
[7] = 0.05 mg/kg/min, n=41, ICU + 48 HR
[8] = 0.05 mg/kg/min, n=41, discharge
[9] = 0.10 mg/kg/min, n=35, ICU + 8 HR
[10] = 0.10 mg/kg/min, n=35, ICU + 16 HR
[11] = 0.10 mg/kg/min, n=35, ICU + 32 HR
[12] = 0.10 mg/kg/min, n=35, ICU + 40 HR
[13] = 0.10 mg/kg/min, n=35, ICU + 48 HR
[14] = 0.10 mg/kg/min, n=35, discharge

Structure (SMILES): NC(=O)c1ncn([C@@H]2O[C@H](CO)[C@@H](O)[C@H]2O)c1N [AICA riboside, 5-amino-1-β-D-ribofuranosyl-imidazole-4-carboxamide]
- CK, mean baseline ([1]; 0.05 mg/kg/min group, n=41): 89.2 +/- 30.9 U/L
- CK-MB, mean baseline ([1]; 0.05 mg/kg/min group, n=41): 0.2 +/- 0.1 U/L
- CK-MB, mean change from baseline ([1]; 0.05 mg/kg/min, n=41, 24 HR POST): 23.5 +/- 5.0 U/L
- CK, mean change from baseline ([1]; 0.05 mg/kg/min, n=41, ICU + 0): 346.2 +/- 45.3 U/L
- CK-MB, mean change from baseline ([1]; 0.05 mg/kg/min, n=41, ICU + 0): 24.5 +/- 2.7 U/L
- CK, mean change from baseline [1, 3]: 839.2 +/- 89.3 U/L
- CK-MB, mean change from baseline [1, 3]: 37.1 +/- 5.1 U/L
- CK, mean change from baseline [1, 4]: 1040.6 +/- 120.3 U/L
- CK-MB, mean change from baseline [1, 4]: 30.8 +/- 4.9 U/L
- CK, mean change from baseline [1, 5]: 874.7 +/- 126.3 U/L
- CK-MB, mean change from baseline [1, 5]: 9.2 +/- 2.5 U/L
- CK, mean change from baseline [1, 6]: 806.6 +/- 145.6 U/L
- CK-MB, mean change from baseline [1, 6]: 7.7 +/- 2.2 U/L
- CK, mean change from baseline [1, 7]: 784.0 +/- 149.9 U/L
- CK-MB, mean change from baseline [1, 7]: 3.9 +/- 1.5 U/L
- CK, mean change from baseline [1, 8]: 87.8 +/- 46.6 U/L
- CK-MB, mean change from baseline [1, 8]: 0.0 +/- 0.1 U/L
- Number of patients developing transmural myocardial infarction (new Q-wave and CK-MB ≥ 50 I.U.) ([1]; 0.05 mg/kg/min, n=41, p=0.42): 2 patients
- Number of patients with non-transmural myocardial infarction (CK-MB ≥ 50 I.U.) ([1]; 0.05 mg/kg/min, n=41, p=0.10): 13 patients
- Incidence of transmural myocardial infarction ([1]; 0.05 mg/kg/min, n=41, placebo […], p=0.42): 4.9%
- CK, mean baseline ([1]; 0.10 mg/kg/min group, n=35): 66.6 +/- 11.3 U/L
- CK-MB, mean baseline ([1]; 0.10 mg/kg/min group, n=35): 0.1 +/- 0.1 U/L
- CK-MB, mean change from baseline ([1]; 0.10 mg/kg/min, n=35, 24 HR POST): 21.1 +/- 5.3 U/L
- CK, mean change from baseline ([1]; 0.10 mg/kg/min, n=35, ICU + 0): 386.1 +/- 51.8 U/L
- CK-MB, mean change from baseline ([1]; 0.10 mg/kg/min, n=35, ICU + 0): 25.2 +/- 2.3 U/L
- CK, mean change from baseline [1, 9]: 869.6 +/- 143.7 U/L
- CK-MB, mean change from baseline [1, 9]: 34.3 +/- 6.2 U/L
- CK, mean change from baseline [1, 10]: 891.0 +/- 148.3 U/L
- CK-MB, mean change from baseline [1, 10]: 25.9 +/- 6.7 U/L
- CK, mean change from baseline [1, 11]: 894.0 +/- 142.9 U/L
- CK-MB, mean change from baseline [1, 11]: 12.8 +/- 4.5 U/L
- CK, mean change from baseline [1, 12]: 641.7 +/- 119.7 U/L
- CK-MB, mean change from baseline [1, 12]: 7.1 +/- 3.0 U/L
- CK, mean change from baseline [1, 13]: 499.8 +/- 100.5 U/L
- CK-MB, mean change from baseline [1, 13]: 3.5 +/- 2.1 U/L
- CK, mean change from baseline [1, 14]: 31.9 +/- 22.0 U/L
- CK-MB, mean change from baseline [1, 14]: 0.4 +/- 0.4 U/L
- Number of patients developing transmural myocardial infarction (new Q-wave and CK-MB ≥ 50 I.U.) ([1]; 0.10 mg/kg/min, n=35, p=0.42): 2 patients
- Non-transmural MI, combined treatment groups versus placebo ([1]; 0.05 + 0.1 mg/kg/min combined, p=0.046): statistically significant
- Number of patients with non-transmural myocardial infarction (CK-MB ≥ 50 I.U.) ([1]; high dose (0.1 mg/kg/min; Table 6 head prints 0.01), n=35, p=0.10): 8 patients
- Incidence of non-transmural myocardial infarction (CK-MB ≥ 50 I.U.) ([1]; high dose (0.1 mg/kg/min; Table 6 head prints 0.01), n=35, placebo 47%, p=0.10): 23.5%
- Rate of perioperative infarction, all drug-treated patients vs placebo ([1]; including first 5 which received higher doses, p<0.05): statistically significant reduction
- Other outcomes (CHF requiring balloon pump or LVAD, cardiac death, life-threatening arrhythmia) ([1]; three groups, exception patient A39 (intra-aortic balloon pump)): none of the other outcomes being evaluated
- Total CK levels compared with placebo; same trend for CK-MB release ([1]; treated groups, across all patients): trend toward a reduction in total CK levels in the treated groups compared with placebo
- Reduction in the frequency of post-operative myocardial infarctions ([1]; treatment groups vs placebo, p=0.15, not significant): 64%
- Stability of liquid formulation [2]: variable discoloration
